Earlier results on one molecule are cited in patent US20240299307A1, “Extended-release compositions comprising atomoxetine” (Tulex Pharmaceuticals, Inc., priority 2021, published 2024).

The structures appear in SMILES notation. Like-named read-outs stand apart in the source and are kept apart here.

As for `CNCC[C@@H](Oc1ccccc1C)c1ccccc1` [ATO], the solubility result (pH of about 1) is listed as “about 18 mg/mL” and the solubility entry (pH of about 4.5 (highest solubility)) was “about 52 mg/mL”. Besides, the “decrease of solubility relative to pH about 4.5” value (pH of greater than about 4.5) is given as “approximately 10 fold” and the “decrease of solubility relative to pH about 4.5” value (pH of less than 4.5) is on record as “approximately 3 fold”.
